How the values were obtained:
[1] = Genistein particle size by laser diffraction technique (Mastersizer 2000); format: physicochemical
[2] = "swing" test (changing temperature test) of genistein-containing emulsions (Example 10); format: physicochemical; details: FIG. 7, comparative: emulsions with example 7 genistein after dry grinding in a Jet mill, 0.3%, 0.5%, 0.1%; ten sequences 5° C./43° C.
Description: To force the crystallization in a disperse system, a test was used in which the temperature is changed over a self-defined timeframe and in self-defined sequences. The test is called “swing” test (changing temperature test). The purpose of this test is to dissolve small particles at the higher temperature and to force re-crystallization at lower temperature. […] The following formulations were used for the “swing” test: […]
Oil- and water phase (o+w) were separately heated up to 70° C. (±5° C.) and were added together. The thickening agent (t) was added under moderate agitation. The mixture was homogenized for 30 seconds at 24,000 RPM by means of an Ultra-Turrax T25 homogenizer. The emulsion was cooled down slowly to 45° C.±5° C. under moderate stirring (horseshoe mixer, 120 RPM). At this temperature the pH value was adjusted to pH 6.5-7.0 by adding base (b). Genistein (g) was added to the still fluid emulsion and was incorporated by homogenizing again for 30 sec. 24,000 RPM by means of an Ultra-Turrax T25 homogenizer. The formulation was cooled down to 25° C.±5° C. under moderate stirring (horseshoe mixer, 120 RPM). […]
FIGS. 5 to 7 show the results of the “swing” test. […] The following genistein samples and concentrations were employed and the emulsions were measured immediately after preparation and after subjecting the samples to ten sequences of the “swing” test: […]

[3] = Example 1, after homogenization (42 passes) and spray-drying, powder re-dispersed in water
[4] = Example 1, after homogenization (42 passes), 1500 bar, with starch sodium octenyl succinate, aqueous suspension
[5] = Example 1, before homogenization
[6] = Example 2, after homogenization (40 passes), 1500 bar, water only, no carrier
[7] = Example 2, after homogenization (42 passes) and spray-drying, powder re-dispersed in water
[8] = Example 2, after homogenization (42 passes), starch sodium octenyl succinate solution added after 40th pass
[9] = Example 2, before homogenization
[10] = Example 3, after homogenization (40 passes), 1500 bar, water only, no carrier
[11] = Example 3, after homogenization (42 passes) and spray-drying, powder re-dispersed in water
[12] = Example 3, after homogenization (42 passes), starch sodium octenyl succinate solution added after 40th pass
[13] = Example 3, before homogenization
[14] = Example 4, after homogenization (20 passes), 700 bar, water only, no carrier, about 20% solid
[15] = Example 4, before homogenization
[16] = Example 5, Table XI, after homogenization (42 passes) and spray-drying as headed, maltodextrin solution added after 40th pass
[17] = Example 5, Table XII, after homogenization (42 passes) and spray-drying, maltodextrin carrier, powder re-dispersed in water
[18] = Example 5, after homogenization (20 passes), 1500 bar, water only, no carrier
[19] = Example 5, before homogenization
[20] = Example 6, after homogenization (11 passages) in agitated bead mill, with starch sodium octenyl succinate
[21] = Example 6, before homogenization
[22] = Example 7, Table XIV, before milling and homogenization
[23] = Example 7, Table XV, before milling and homogenization
[24] = Example 7, after milling (Jet mill) and homogenization (12 times, 700 bar) with starch sodium octenyl succinate
[25] = Example 7, after milling, homogenization and spray drying

O=c1c(-c2ccc(O)cc2)coc2cc(O)cc(O)c12 [Genistein, 4′,5,7-trihydroxyisoflavone]
Average particle size D[3, 2] [1, 3]: 0.14 microns
Average particle size D[4, 3] [1, 3]: 0.83 microns
Genistein particle size D (v, 0.1) [1, 3]: 0.07 microns
Genistein particle size D (v, 0.5) [1, 3]: 0.16 microns
Genistein particle size D (v, 0.9) [1, 3]: 2.86 microns
Average particle size D[3, 2] [1, 4]: 0.15 microns
Average particle size D[4, 3] [1, 4]: 0.97 microns
Genistein particle size D (v, 0.1) [1, 4]: 0.07 microns
Genistein particle size D (v, 0.5) [1, 4]: 0.17 microns
Genistein particle size D (v, 0.9) [1, 4]: 3.65 microns
Average particle size D[3, 2] [1, 5]: 23.1 microns
Average particle size D[4, 3] [1, 5]: 48.5 microns
Genistein particle size D (v, 0.1) [1, 5]: 17.1 microns
Genistein particle size D (v, 0.5) [1, 5]: 41.9 microns
Genistein particle size D (v, 0.9) [1, 5]: 91.0 microns
Average particle size D[3, 2] [1, 6]: 0.14 microns
Average particle size D[4, 3] [1, 6]: 0.76 microns
Genistein particle size D (v, 0.1) [1, 6]: 0.07 microns
Genistein particle size D (v, 0.5) [1, 6]: 0.16 microns
Genistein particle size D (v, 0.9) [1, 6]: 2.42 microns
Average particle size D[3, 2] [1, 7]: 0.14 microns
Average particle size D[4, 3] [1, 7]: 0.55 microns
Genistein particle size D (v, 0.1) [1, 7]: 0.07 microns
Genistein particle size D (v, 0.5) [1, 7]: 0.15 microns
Genistein particle size D (v, 0.9) [1, 7]: 1.14 microns
Average particle size D[3, 2] [1, 8]: 0.14 microns
Average particle size D[4, 3] [1, 8]: 0.41 microns
Genistein particle size D (v, 0.1) [1, 8]: 0.07 microns
Genistein particle size D (v, 0.5) [1, 8]: 0.16 microns
Genistein particle size D (v, 0.9) [1, 8]: 0.93 microns
Average particle size D[3, 2] [1, 9]: 23.1 microns
Average particle size D[4, 3] [1, 9]: 48.5 microns
Genistein particle size D (v, 0.1) [1, 9]: 17.1 microns
Genistein particle size D (v, 0.5) [1, 9]: 41.9 microns
Genistein particle size D (v, 0.9) [1, 9]: 91.0 microns
Average particle size D[3, 2] [1, 10]: 0.14 microns
Average particle size D[4, 3] [1, 10]: 0.76 microns
Genistein particle size D (v, 0.1) [1, 10]: 0.07 microns
Genistein particle size D (v, 0.5) [1, 10]: 0.16 microns
Genistein particle size D (v, 0.9) [1, 10]: 2.00 microns
Average particle size D[3,2] (surface mean diameter) [1, 11]: 0.14 microns
Average particle size D[4, 3] [1, 11]: 0.43 microns
Genistein particle size D (v, 0.1) [1, 11]: 0.07 microns
Genistein particle size D (v, 0.5) [1, 11]: 0.16 microns
Genistein particle size D (v, 0.9) [1, 11]: 0.97 microns
Average particle size D[3, 2] [1, 12]: 0.14 microns
Average particle size D[4, 3] [1, 12]: 0.40 microns
Genistein particle size D (v, 0.1) [1, 12]: 0.07 microns
Genistein particle size D (v, 0.5) [1, 12]: 0.16 microns
Genistein particle size D (v, 0.9) [1, 12]: 0.91 microns
Average particle size D[3, 2] [1, 13]: 23.1 microns
Average particle size D[4, 3] [1, 13]: 48.5 microns
Genistein particle size D (v, 0.1) [1, 13]: 17.1 microns
Genistein particle size D (v, 0.5) [1, 13]: 41.9 microns
Genistein particle size D (v, 0.9) [1, 13]: 91.0 microns
Average particle size D[3, 2] [1, 14]: 0.13 microns
Average particle size D[4, 3] [1, 14]: 0.83 microns
Genistein particle size D (v, 0.1) [1, 14]: 0.07 microns
Genistein particle size D (v, 0.5) [1, 14]: 0.15 microns
Genistein particle size D (v, 0.9) [1, 14]: 2.62 microns
Average particle size D[3, 2] [1, 15]: 23.1 microns
Average particle size D[4, 3] [1, 15]: 48.5 microns
Genistein particle size D (v, 0.1) [1, 15]: 17.1 microns
Genistein particle size D (v, 0.5) [1, 15]: 41.9 microns
Genistein particle size D (v, 0.9) [1, 15]: 91.0 microns
Average particle size D[3, 2] [1, 16]: 0.14 microns
Average particle size D[4, 3] [1, 16]: 0.41 microns
Genistein particle size D (v, 0.1) [1, 16]: 0.07 microns
Genistein particle size D (v, 0.5) [1, 16]: 0.16 microns
Genistein particle size D (v, 0.9) [1, 16]: 0.93 microns
Average particle size D[3, 2] [1, 17]: 0.13 microns
Average particle size D[4, 3] [1, 17]: 0.41 microns
Genistein particle size D (v, 0.1) [1, 17]: 0.07 microns
Genistein particle size D (v, 0.5) [1, 17]: 0.15 microns
Genistein particle size D (v, 0.9) [1, 17]: 0.93 microns
Average particle size D[3,2] (surface mean diameter) [1, 18]: 0.14 microns
Average particle size D[4, 3] [1, 18]: 0.42 microns
Genistein particle size D (v, 0.1) [1, 18]: 0.07 microns
Genistein particle size D (v, 0.5) [1, 18]: 0.16 microns
Genistein particle size D (v, 0.9) [1, 18]: 0.92 microns
Average particle size D[3,2] (surface mean diameter) [1, 19]: 23.1 microns
Average particle size D[4, 3] [1, 19]: 48.5 microns
Genistein particle size D (v, 0.1) [1, 19]: 17.8 microns
Genistein particle size D (v, 0.5) [1, 19]: 41.4 microns
Genistein particle size D (v, 0.9) [1, 19]: 90.2 microns
Average particle size D[4, 3] [1, 20]: 0.23 microns
Genistein particle size D (v, 0.1) [1, 20]: 0.07 microns
Genistein particle size D (v, 0.5) [1, 20]: 0.16 microns
Genistein particle size D (v, 0.9) [1, 20]: 0.45 microns
Average particle size D[4, 3] [1, 21]: 48.5 microns
Genistein particle size D (v, 0.1) [1, 21]: 17.8 microns
Genistein particle size D (v, 0.5) [1, 21]: 41.4 microns
Genistein particle size D (v, 0.9) [1, 21]: 90.2 microns
Average particle size D[4, 3] [1, 22]: 48.5 microns
Genistein particle size D (v, 0.1) [1, 22]: 17.8 microns
Genistein particle size D (v, 0.5) [1, 22]: 41.4 microns
Genistein particle size D (v, 0.9) [1, 22]: 90.2 microns
Average particle size D[4, 3] [1, 23]: 48.5 microns
Genistein particle size D (v, 0.1) [1, 23]: 17.8 microns
Genistein particle size D (v, 0.5) [1, 23]: 41.4 microns
Genistein particle size D (v, 0.9) [1, 23]: 90.2 microns
Average particle size D[4, 3] [1, 24]: 0.53 microns
Genistein particle size D (v, 0.1) [1, 24]: 0.07 microns
Genistein particle size D (v, 0.5) [1, 24]: 0.18 microns
Genistein particle size D (v, 0.9) [1, 24]: 1.38 microns
Average particle size D[4, 3] [1, 25]: 0.65 microns
Genistein particle size D (v, 0.1) [1, 25]: 0.08 microns
Genistein particle size D (v, 0.5) [1, 25]: 0.19 microns
Genistein particle size D (v, 0.9) [1, 25]: 1.84 microns
Particle size change in the "swing" test [2]: Huge crystals are formed
